In patent publication US5795907A, “Gastin and CCK receptor ligands” (James Black Foundation Limited, priority 1994, dated 1998):

How the values were obtained:
gastrin = target: T1, gastrin (Rattus norvegicus, UniProt P30553); test: gastrin antagonist activity in an immature rat stomach assay (pentagastrin-stimulated acid secretion); settings: cumulative pentagastrin dose-response curves after 60 min with drug; for Kb: read-out: Gastrin pKB (converted)
T1 construct: The stomach was lowered into a jacketed organ bath containing 40 ml of buffered solution; from tissue; host or cells: isolated perfused whole stomach of immature rats (ca. 21 days old)
T1 sequence (P30553 1-452): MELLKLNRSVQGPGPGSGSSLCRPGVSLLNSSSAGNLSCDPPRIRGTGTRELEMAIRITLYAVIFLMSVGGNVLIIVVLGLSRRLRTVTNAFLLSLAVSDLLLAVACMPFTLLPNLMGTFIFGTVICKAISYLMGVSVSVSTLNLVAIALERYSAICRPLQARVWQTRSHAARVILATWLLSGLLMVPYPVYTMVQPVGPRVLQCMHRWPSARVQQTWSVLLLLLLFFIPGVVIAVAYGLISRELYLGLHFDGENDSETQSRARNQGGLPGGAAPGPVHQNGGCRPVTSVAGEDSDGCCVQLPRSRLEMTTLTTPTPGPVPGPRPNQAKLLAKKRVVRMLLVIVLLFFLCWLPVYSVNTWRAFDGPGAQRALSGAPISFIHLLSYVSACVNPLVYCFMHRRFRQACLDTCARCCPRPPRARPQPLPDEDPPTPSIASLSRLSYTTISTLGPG
Protocol: The compounds of the examples were also tested for gastrin antagonist activity in an immature rat stomach assay. The procedure was as follows:
The oesophagus of immature rats (33-50 g, ca. 21 days old) was ligated at the level of the cardiac sphincter and the duodenal sphincter was cannulated. The stomach was excised and flushed with ca. 1 ml of unbuffered physiological saline solution. The fundus was punctured and cannulated. A further 4-5 ml of unbuffered solution was flushed through the stomach to ensure the preparation was not leaking. The stomach was lowered into a jacketed organ bath containing 40 ml of buffered solution containing 3×10^-8 M 5-methylfurmethide, maintained at 37° and gassed vigorously with 95% O2 /5% CO2. The stomach was continuously perfused at a rate of 1 ml min^-1 with unbuffered solution gassed with 100% O2 with the perfusate passing over an internally referenced pH-electrode fixed 12 cm above the stomach.
After 120 min of stabilisation the drugs were added directly to the serosal solution in the organ bath and after a further 60 min cumulative pentagastrin dose-response curves were started. Changes in acid secretion were monitored and the curves analysed according to Black et.al., Br. J. Pharmacol., 1985, 86, 581.

CCKA = target: T2, CCKA (Cavia porcellus, UniProt Q63931); test: CCKA radioligand binding assay in guinea-pig pancreas membranes ([125I]-CCK8(S)); settings: PD134,308 present, 150 minutes at 21±3°; for Ki: read-out: CCKA pKi (converted)
T2 construct: The pancreatata were homogenised in 40 ml ice-cold HEPES buffer using a polytron; from tissue; host or cells: pancreas membranes of male Dunkin Hartley guinea-pigs
T2 sequence (Q63931 1-430): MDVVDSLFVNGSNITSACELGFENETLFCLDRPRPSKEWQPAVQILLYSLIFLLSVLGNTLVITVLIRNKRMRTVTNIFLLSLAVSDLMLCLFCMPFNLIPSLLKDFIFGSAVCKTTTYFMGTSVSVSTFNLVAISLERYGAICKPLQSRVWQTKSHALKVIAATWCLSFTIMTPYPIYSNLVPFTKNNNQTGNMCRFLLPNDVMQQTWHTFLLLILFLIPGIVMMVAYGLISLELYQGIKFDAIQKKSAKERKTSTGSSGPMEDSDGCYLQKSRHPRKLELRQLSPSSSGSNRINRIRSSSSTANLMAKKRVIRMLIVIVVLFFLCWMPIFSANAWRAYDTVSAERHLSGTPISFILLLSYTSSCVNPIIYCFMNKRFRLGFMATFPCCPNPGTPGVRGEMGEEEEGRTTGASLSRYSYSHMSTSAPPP
Method in brief: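 Male guinea-pig pancreas membranes (1 mg/ml wet tissue in HEPES pH 7.2, suspension containing 0.375 μM PD134,308) were incubated 150 min at 21±3° with [125I]-CCK8(S) ([…] added solution) and competitor. Non-specific binding used 100 nM L-364,718 (added solution). Bound radioligand was measured by GF/B filtration and gamma counting.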

CCKB receptor = target: T3, CCKB receptor (Mus musculus, UniProt P56481); test: CCKB receptor radioligand binding assay in mouse cortical membranes ([125I]-CCK8S); settings: [125I]-CCK8S 200 pM, 150 min at 21±3°; for Ki: read-out: CCKB pKi (converted)
T3 construct: The cortex was dissected, weighed and homogenised in 40ml ice-cold buffer; tissue Charles River (supplier of the CD1 mice); host or cells: cerebral cortex membranes of male CD1 mice
T3 sequence (P56481 1-453): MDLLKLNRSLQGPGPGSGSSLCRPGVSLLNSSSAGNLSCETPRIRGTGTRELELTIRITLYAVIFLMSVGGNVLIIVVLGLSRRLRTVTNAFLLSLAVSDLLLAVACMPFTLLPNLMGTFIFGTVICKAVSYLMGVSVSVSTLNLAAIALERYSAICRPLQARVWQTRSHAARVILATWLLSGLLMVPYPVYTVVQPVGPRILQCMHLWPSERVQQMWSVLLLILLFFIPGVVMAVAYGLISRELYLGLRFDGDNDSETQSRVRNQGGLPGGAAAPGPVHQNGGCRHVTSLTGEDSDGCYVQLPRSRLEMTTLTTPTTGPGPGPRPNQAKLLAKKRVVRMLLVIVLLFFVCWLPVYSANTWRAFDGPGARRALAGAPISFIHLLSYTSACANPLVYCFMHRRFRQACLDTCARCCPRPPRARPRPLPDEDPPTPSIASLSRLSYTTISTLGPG
Method in brief: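 Cortical membranes from male CD1 mice in HEPES buffer (pH 7.2; NaCl, KCl, MgCl2, EDTA, bacitracin) were incubated with competing compound and [125I]-CCK8S (added as a 200 pM solution) for 150 min at 21±3°. Non-specific binding was defined with L-365,260. Bound tracer was separated by GF/B filtration and counted by gamma counting.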

Row | Molecule | Kb (gastrin) | Ki (CCKA) | Ki (CCKB receptor) | Gastrin pKB (gastrin) | CCKA pKi (CCKA) | CCKB pKi (CCKB receptor)
1 | O=C(O)c1cc2ccccc2cc1C(=O)NCC12CC3CC(CC(C3)C1)C2 [Example 1, 3-(1-adamantanemethylaminocarbonyl)-2-naphthoic acid] | 1580 nM | 7940 nM | 3160 nM | – | – | –
2 | O=C(NCC12CC3CC(CC(C3)C1)C2)c1cc2ccccc2cc1C(=O)N1CCC[C@H]1C(=O)O [Example 4, 2-(2S-carboxypyrrolidino-carbonyl)-3-(1-adamantanemethylaminocarbonyl)-naphthalene] | 501 nM | 3980 nM | 3160 nM | – | – | –
3 | 5-(1S-(3,5-dicarboxyphenylaminocarbonyl)-2-(4-aminophenyl)ethylaminocarbonyl)-6-(1-adamantanemethylaminocarbonyl)-indole and regioisomer with substituents at positions 5 and 6 reversed [Example 31] | – | – | – | 8.9 | 5.5 | 7.9
4 | 5-(1S-(3,5-dicarboxyphenylaminocarbonyl)-2-(4-hydroxyphenyl)e thylaminocarbonyl)-6-(1-adamantanemethylaminocarbonyl)-indole and regioisomer with substituents at positions 5 and 6 reversed [Example 30] | – | – | – | 9.1 | 5.2 | 7.6
5 | O=C(NO)c1cc(NC(=O)[C@H](Cc2ccccc2)NC(=O)c2cc3cc[nH]c3cc2C(=O)NCC23CC4CC(CC(C4)C2)C3)cc(C(=O)NO)c1 [Example 34, 5-(1S-(3,5-dihydroxyaminocarbonylphenylaminocarbonyl)-2-phenylethylaminocarbonyl)-6-(1-adamantanemethylaminocarbonyl)-indole] | 2 nM | 794 nM | 7.94 nM | – | – | –
6 | O=C(O)c1cc(NC(=O)[C@H](Cc2ccccc2)NC(=O)c2cc3[nH]ccc3cc2C(=O)NCC23CC4CC(CC(C4)C2)C3)cc(C(=O)O)c1 [Example 26, 6-(1S-(3,5-dicarboxyphenylaminocarbonyl)-2-phenylethylaminocarbonyl)-5-(1-adamantanemethylaminocarbonyl)-indole] | 0.501 nM | 3160 nM | 12.6 nM | – | – | –
7 | O=C(O)c1cc(NC(=O)[C@H](Cc2ccccc2)NC(=O)c2cc3cc[nH]c3cc2C(=O)NCC2CN3CCC2CC3)cc(C(=O)O)c1 (stereo partly drawn) [Example 108, 5-(1S-(3,5-dicarboxyphenylaminocarbonyl)-2-phenylethylaminocarbonyl)-6-(1-azabicyclo[2.2.2]oct-3-ylmethylaminocarbonyl)-indole] | 794 nM | > 10000 nM | 1260 nM | – | – | –
8 | COC(=O)[C@@H](C)NC(=O)c1cc2ccccc2cc1C(=O)NCC12CC3CC(CC(C3)C1)C2 [Example 8, 2-(1R-methoxycarbonylethylamino-carbonyl)-3-(1-adamantanemethylaminocarbonyl)-naphthalene] | 1260 nM | 1000 nM | 5010 nM | – | – | –

Results, then the molecule that gave them:

Row | Kb (gastrin) | Ki (CCKA) | Ki (CCKB receptor) | Gastrin pKB (gastrin) | CCKA pKi (CCKA) | CCKB pKi (CCKB receptor) | Molecule
9 | 126 nM | > 10000 nM | 200 nM | – | – | – | O=C(O)c1cc(NC(=O)[C@H](Cc2ccccc2)NC(=O)c2cc3cc[nH]c3cc2C(=O)NCC2CCC(O)CC2)cc(C(=O)O)c1 (single isomer, unassigned) [Example 109, 5-(1S-(3,5-dicarboxyphenylaminocarbonyl)-2-phenylethylaminocarbonyl)-6-(4-hydroxycyclohexanemethylaminocarbonyl)-indole]
10 | 2.51 nM | 2000 nM | 6.31 nM | – | – | – | O=C(NCC12CC3CC(CC(C3)C1)C2)c1cc2nc[nH]c2cc1C(=O)N[C@@H](Cc1ccccc1)C(=O)Nc1cccc(S(=O)(=O)NC(=O)C(F)(F)F)c1 [Example 128, 5-(1S-(3-trifluoroacetylaminosulphonylphenylaminocarbonyl)-2-phenylethylaminocarbonyl)-6-(1-adamantanemethylaminocarbonyl)-benzimidazole]
11 | 15.8 nM | 7940 nM | 7.94 nM | – | – | – | O=C(O)c1cc(NC(=O)[C@H](Cc2ccccc2F)NC(=O)c2cc3[nH]cnc3cc2C(=O)NCC2CCCCCC2)cc(C(=O)O)c1 [Example 70, 5-(1S-(3,5-dicarboxyphenylaminocarbonyl)-2-(2-fluorophenyl)ethylaminocarbonyl)-6-(cycloheptanemethylaminocarbonyl)-benzimidazole]
12 | – | – | – | 8.7 | 5.6 | 8.7 | CC(=O)n1ccc2cc(C(=O)N[C@@H](Cc3ccccc3)C(=O)Nc3cc(C(=O)O)cc(C(=O)O)c3)c(C(=O)NCC34CC5CC(CC(C5)C3)C4)cc21 [Example 44, 5-(1S-(3,5-dicarboxyphenylaminocarbonyl)-2-phenylethylaminocarbonyl)-6-(1-adamantanemethylaminocarbonyl)-N-acetyl-indole]
13 | – | – | – | 7.3 | 6.3 | 6.8 | 5-(1S-(3-methoxycarbonyl-5-carboxy-phenylaminocarbonyl)-2-phenylethylaminocarbonyl)-6-(1-adamantanemethylaminocarbonyl)-indole and regioisomer with substituents at positions 5 and 6 reversed [Example 40]
14 | – | – | – | 6.8 | 5.1 | 6.2 | 5-(2R-(1R-carboxyethylaminocarbonyl)pyrrolidinocarbonyl)-6-(1-adamantanemethylaminocarbonyl)-indole [Example 89]
15 | 6.31 nM | 3980 nM | 15.8 nM | – | – | – | O=C(O)c1cc(NC(=O)[C@H](Cc2ccccc2)NC(=O)c2cc3[nH]cnc3cc2C(=O)NCC2CCCCCC2)cc(C(=O)O)c1 [Example 62, 5-(1S-(3,5-dicarboxyphenylaminocarbonyl)-2-phenylethylaminocarbonyl)-6-(1-cycloheptanemethylaminocarbonyl)-benzimidazole]
16 | – | – | – | 7.2 | 5.2 | 6.9 | O=C(O)c1cc(NC(=O)[C@H](Cc2ccccc2)NC(=O)c2c(C(=O)NCC34CC5CC(CC(C5)C3)C4)ccc3[nH]cnc23)cc(C(=O)O)c1 [Example 113, 4-(1S-(3,5-dicarboxyphenylaminocarbonyl)-2-phenylethylaminocarbonyl)-5-(1-adamantanemethylaminocarbonyl)-benzimidazole]
